Assay results published in US20210038579A1, “Treatment Of Patients With Classic Fabry Disease” (Amicus Therapeutics, Inc., priority 2018, published 2021).
Residue numbers refer to the chain shown, from its start.

Experiments:
Assay in all cases: HEK assay: α-Gal A activity in HEK-293 cell lysate with migalastat
Format in all cases: cell-based
[1] = target: T1, α-Gal A mutant form p.Arg112His (c.335 G > A) (Homo sapiens, UniProt P06280, R112H)
T1 construct: expressed in transfected cells; host or cells: HEK-293
T1 sequence (P06280 32-429 R112H): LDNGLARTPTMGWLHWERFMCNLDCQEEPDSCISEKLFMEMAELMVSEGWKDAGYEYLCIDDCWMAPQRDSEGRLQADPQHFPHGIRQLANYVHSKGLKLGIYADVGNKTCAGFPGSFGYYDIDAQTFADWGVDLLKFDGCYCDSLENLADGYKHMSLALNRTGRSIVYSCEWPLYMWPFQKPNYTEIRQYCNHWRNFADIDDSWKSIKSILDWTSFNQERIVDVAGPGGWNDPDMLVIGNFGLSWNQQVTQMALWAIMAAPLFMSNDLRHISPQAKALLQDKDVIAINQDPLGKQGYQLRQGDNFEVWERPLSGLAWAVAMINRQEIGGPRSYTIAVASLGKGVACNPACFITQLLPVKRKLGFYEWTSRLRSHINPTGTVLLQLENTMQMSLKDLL
Method in brief: (§1)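 Transient HEK-293 expression of mutant α-Gal A; ±migalastat 17 nM–1 mM, 4–5 d; lysate α-Gal A by 4-MU-α-Gal fluorescence or western blot.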

[2] = target: T2, α-Gal A mutant form p.Asp264Tyr (c.790 G > T) (Homo sapiens, UniProt P06280, D264Y)
T2 construct: expressed in transfected cells; host or cells: HEK-293
T2 sequence (P06280 32-429 D264Y): T1 sequence (P06280 32-429 R112H) with H81R, D233Y
Method in brief: as §1

[3] = target: T3, α-Gal A mutant form p.Cys174Arg (c.520 T > C) (Homo sapiens, UniProt P06280, C174R)
T3 construct: expressed in transfected cells; host or cells: HEK-293
T3 sequence (P06280 32-429 C174R): T1 sequence (P06280 32-429 R112H) with H81R, C143R
Method in brief: as §1

[4] = target: T4, α-Gal A mutant form p.Leu36Trp (c.107 T > G) (Homo sapiens, UniProt P06280, L36W)
T4 construct: expressed in transfected cells; host or cells: HEK-293
T4 sequence (P06280 32-429 L36W): T1 sequence (P06280 32-429 R112H) with L5W, H81R
Method in brief: as §1

[5] = target: T5, α-Gal A mutant form p.Pro293Thr (c.877 C > A) (Homo sapiens, UniProt P06280, P293T)
T5 construct: expressed in transfected cells; host or cells: HEK-293
T5 sequence (P06280 32-429 P293T): T1 sequence (P06280 32-429 R112H) with H81R, P262T
Method in brief: as §1

[6] = +10 μM migalastat, HEK-293 cell lysate, mean ± SEM, n = 20
[7] = HEK293, 10 μM migalastat minus baseline, read-out: Absolute increase at 10 μM (% WT)

## OC[C@H]1NC[C@H](O)[C@@H](O)[C@H]1O [migalastat]
[1]; 10 μM migalastat
  α-Gal A activity at 10 μM (fold over baseline): 6.61 fold over baseline
[1]; [6]
  +Migalastat α-Gal A activity: 5583 ± 215 nmol/mg/h
  +Migalastat α-Gal A activity % WT: 17.4 ± 0.8 % WT
[1]; [7]
  activation at 10 µM: 14.8%
[2]; 10 μM migalastat
  α-Gal A activity at 10 μM (fold over baseline): 12.89 fold over baseline
[2]; [6]
  +Migalastat α-Gal A activity: 1842 ± 100 nmol/mg/h
  +Migalastat α-Gal A activity % WT: 6.2 ± 0.3 % WT
[2]; [7]
  activation at 10 µM: 5.7%
[3]; 10 μM migalastat
  α-Gal A activity at 10 μM (fold over baseline): 3.53 fold over baseline
[3]; [6]
  +Migalastat α-Gal A activity: 16505 ± 393 nmol/mg/h
  +Migalastat α-Gal A activity % WT: 51.6 ± 2.0 % WT
[3]; [7]
  activation at 10 µM: 37.4%
[4]; 10 μM migalastat
  α-Gal A activity at 10 μM (fold over baseline): 21.49 fold over baseline
[4]; [6]
  +Migalastat α-Gal A activity: 5182 ± 463 nmol/mg/h
  +Migalastat α-Gal A activity % WT: 16.6 ± 2.1 % WT
[4]; [7]
  activation at 10 µM: 15.9%
[5]; 10 μM migalastat
  α-Gal A activity at 10 μM (fold over baseline): 19.60 fold over baseline
[5]; [6]
  +Migalastat α-Gal A activity: 4488 ± 327 nmol/mg/h
  +Migalastat α-Gal A activity % WT: 13.3 ± 1.1 % WT
[5]; [7]
  activation at 10 µM: 12.7%
